From the supplement of paper PMC13207355

Key:
Conditions in all cases: exposure time: 72 h
E21 [1] = patient-derived glioblastoma stem cells of mesenchymal subtype; assay: surviving fraction (nuclei count normalised to DMSO); higher = more cells surviving (less toxic)
E28 [2] = patient-derived glioblastoma stem cells of classical subtype; assay: as above
E34 [3] = patient-derived glioblastoma stem cells of proneural subtype; assay: as above
FT3469 [4] = normal neural stem cell line; assay: as above
E13 [5] = patient-derived glioblastoma stem cells of classical subtype; assay: as above
E57 [6] = patient-derived glioblastoma stem cells of mesenchymal subtype; assay: as above
E31 [7] = patient-derived glioblastoma stem cells of proneural subtype; assay: as above
E21 [8] = assay: phenotypic distance (Euclidean, principal components) from DMSO controls (arbitrary units); higher = stronger morphological change
E28 [9] = assay: as above
E34 [10] = assay: as above
FT3469 [11] = assay: as above
E13 [12] = assay: as above
E57 [13] = assay: as above
E31 [14] = assay: as above
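Wherever phenotypic distance (Euclidean, principal components) from DMSO controls is given: cell Painting imaging in 384-well plates, CellProfiler features reduced to at least 20 principal components, Euclidean distance versus same-plate DMSO vehicle wells (0.1% v/v), median over six images per well.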
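Wherever surviving fraction (nuclei count normalised to DMSO) is given: nuclei counted by high-content imaging of Hoechst-stained cells in laminin-coated 384-well plates, relative to 0.1% DMSO vehicle wells, with staurosporine as cell-death control.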

CN(C(=O)CN(CCO)CC(=O)N(C)C(C)(C)Cc1ccccc1)C(C)(C)Cc1ccccc1 [Oxethazaine]
Conditions | phenotypic distance | surviving fraction
E13 [5], 4.1 nM | – | 1.09
E13 [5], 12.3 nM | – | 0.968
E13 [5], 37 nM | – | 0.928
E13 [5], 111.1 nM | – | 1.04
E13 [5], 333.3 nM | – | 1.07
E13 [5], 1000 nM | – | 0.99
E13 [5], 3000 nM | – | 0.951
E13 [12], 4.1 nM | 0.675 | –
E13 [12], 12.3 nM | 0.799 | –
E13 [12], 37 nM | 3.23 | –
E13 [12], 111.1 nM | 0.762 | –
E13 [12], 333.3 nM | 0.641 | –
E13 [12], 1000 nM | 3.59 | –
E13 [12], 3000 nM | 0.501 | –
E21 [1], 4.1 nM | – | 0.958
E21 [1], 12.3 nM | – | 1
E21 [1], 37 nM | – | 1.03
E21 [1], 111.1 nM | – | 0.955
E21 [1], 333.3 nM | – | 1.12
E21 [1], 1000 nM | – | 0.969
E21 [1], 3000 nM | – | 1.08
E21 [8], 4.1 nM | 1.27 | –
E21 [8], 12.3 nM | 0.301 | –
E21 [8], 37 nM | 0.673 | –
E21 [8], 111.1 nM | 0.767 | –
E21 [8], 333.3 nM | 0.702 | –
E21 [8], 1000 nM | 0.599 | –
E21 [8], 3000 nM | 0.942 | –
E28 [2], 4.1 nM | – | 1.08
E28 [2], 12.3 nM | – | 0.989
E28 [2], 37 nM | – | 1.05
E28 [2], 111.1 nM | – | 0.943
E28 [2], 333.3 nM | – | 1.15
E28 [2], 1000 nM | – | 1
E28 [2], 3000 nM | – | 1.16
E28 [9], 4.1 nM | 0.766 | –
E28 [9], 12.3 nM | 0.639 | –
E28 [9], 37 nM | 0.581 | –
E28 [9], 111.1 nM | 0.521 | –
E28 [9], 333.3 nM | 0.535 | –
E28 [9], 1000 nM | 0.928 | –
E28 [9], 3000 nM | 0.763 | –
E31 [7], 4.1 nM | – | 0.961
E31 [7], 12.3 nM | – | 0.975
E31 [7], 37 nM | – | 1.03
E31 [7], 111.1 nM | – | 0.93
E31 [7], 333.3 nM | – | 1.09
E31 [7], 1000 nM | – | 1.01
E31 [7], 3000 nM | – | 1.01
E31 [14], 4.1 nM | 1.19 | –
E31 [14], 12.3 nM | 0.518 | –
E31 [14], 37 nM | 0.559 | –
E31 [14], 111.1 nM | 0.664 | –
E31 [14], 333.3 nM | 0.743 | –
E31 [14], 1000 nM | 0.675 | –
E31 [14], 3000 nM | 1.16 | –
E34 [3], 4.1 nM | – | 1.02
E34 [3], 12.3 nM | – | 0.88
E34 [3], 37 nM | – | 1.05
E34 [3], 111.1 nM | – | 0.971
E34 [3], 333.3 nM | – | 1.19
E34 [3], 1000 nM | – | 1.2
E34 [3], 3000 nM | – | 0.914
E34 [10], 4.1 nM | 0.701 | –
E34 [10], 12.3 nM | 0.608 | –
E34 [10], 37 nM | 0.585 | –
E34 [10], 111.1 nM | 0.716 | –
E34 [10], 333.3 nM | 0.77 | –
E34 [10], 1000 nM | 0.595 | –
E34 [10], 3000 nM | 0.878 | –
E57 [6], 4.1 nM | – | 1.01
E57 [6], 12.3 nM | – | 0.936
E57 [6], 37 nM | – | 0.966
E57 [6], 111.1 nM | – | 0.964
E57 [6], 333.3 nM | – | 0.991
E57 [6], 1000 nM | – | 0.948
E57 [6], 3000 nM | – | 1
E57 [13], 4.1 nM | 0.467 | –
E57 [13], 12.3 nM | 0.582 | –
E57 [13], 37 nM | 0.373 | –
E57 [13], 111.1 nM | 0.789 | –
E57 [13], 333.3 nM | 0.553 | –
E57 [13], 1000 nM | 0.494 | –
E57 [13], 3000 nM | 1.79 | –
FT3469 [4], 4.1 nM | – | 0.961
FT3469 [4], 12.3 nM | – | 0.979
FT3469 [4], 37 nM | – | 1.02
FT3469 [4], 111.1 nM | – | 1.05
FT3469 [4], 333.3 nM | – | 0.978
FT3469 [4], 1000 nM | – | 1.1
FT3469 [4], 3000 nM | – | 0.933
FT3469 [11], 4.1 nM | 1.79 | –
FT3469 [11], 12.3 nM | 0.53 | –
FT3469 [11], 37 nM | 0.88 | –
FT3469 [11], 111.1 nM | 0.534 | –
FT3469 [11], 333.3 nM | 0.669 | –
FT3469 [11], 1000 nM | 0.43 | –
FT3469 [11], 3000 nM | 1.12 | –
